Measured values reported in the NIST ThermoML archive (doi:10.1016/j.jct.2016.07.015).
Values joined by “and” are separate entries in the source; they are usually repeats but may differ in a detail not shown here. Equal entries are not always repeated.

Settings: Crystal, Calculated from knudsen effusion weight loss

COc1cc(CO)ccc1O [4-hydroxy-3-methoxybenzyl alcohol]
Settings | vapor or sublimation pressure
332.19 K | 0.000113 kPa and 0.0001121 kPa and 0.0001096 kPa
334.36 K | 0.0001475 kPa and 0.0001466 kPa and 0.0001413 kPa
336.15 K | 0.0001823 kPa and 0.0001755 kPa and 0.0001867 kPa
338.21 K | 0.0002375 kPa and 0.0002339 kPa and 0.0002403 kPa
340.27 K | 0.0003072 kPa and 0.0002982 kPa and 0.0003122 kPa
342.14 K | 0.0003845 kPa and 0.0003697 kPa and 0.0003916 kPa
344.21 K | 0.0005061 kPa and 0.0004935 kPa and 0.000506 kPa
346.27 K | 0.0006422 kPa and 0.0006234 kPa and 0.0006502 kPa
348.13 K | 0.0008066 kPa and 0.0007737 kPa and 0.0008145 kPa
350.15 K | 0.001038 kPa and 0.001007 kPa and 0.001064 kPa
